Patent US5496809A, “Stable solutions of rebeccamycin analog” (priority 1989, dated 1996)
Structures can show the parent of a compound that is named as a salt. Where two headings read alike, the source gives them in different places.

Tests used:
[1] = Solubility in water; type: physicochemical
Excerpt: The compound is referred to in Kaneko et al U.S. Pat. No. 4,785,085 as 6-(2-diethylaminoethyl)rebeccmycin and its preparation is described in Example 1 of the patent and its effectiveness to inhibit growth of tumors in experimental animal systems is shown in Table 3 of the patent. […] Instead, it forms a suspension.
Besides being stable at room temperature, the solutions herein have enhanced solubility at low temperatures, e.g., refrigeration temperatures or cold conditions encountered during shipping or storage, etc.
Pharmaceutically acceptable acid components (c) which meet this solubility criterion include, for example, L-(+)-tartaric, D,L-malic, L-(-)-malic, citric, L-(+)-lactic, lactobionic, methanesulfonic, phosphoric, pyroglutamic, succinic and sulfuric acids. The most preferred acid of these is L-(+)-tartaric acid.

[2] = system: transplanted mouse leukemia P-338; settings: for % T/C (median survival time) / MST (median survival time): IV, 5 daily injections; for AWC (average weight change at Day 5): mouse, in vivo, iv
Excerpt: (§1) The screening procedures involved administration of test compound intraperitonially (IP) to CDF1 female mice (18 to 22 grams) infected with 1×10^6 ascites cells intraperitonially, and intravenously (IV) to CDF1 female mice (18 to 22 Grams) infected with 1×10 ascites cells intravenously. Drug therapy was started on Day 1 (date of implant) and consisted of 1 injection per day for 5 successive days. […] Mitomycin C is included for comparison purposes.

[3] = system: transplanted mouse leukemia P-338
Excerpt: as §1

[4] = Long term physical stability of aqueous solutions at room temperature; type: physicochemical; settings: one molar equivalent of acid; period less than 2 years at room temperature
Excerpt: These unexpected physical instabilities include gelling, precipitation, cloudiness, and formation of liquid crystalline phases which render solutions of the crystalline salts unsuitable for practical use as, or for dilution with water to provide, injectable solutions.

[5] = IP, 4.8 mg/kg/inj, 5 daily injections

Q: Which “solubility in water (in words)” value ([1]; added to water to form an aqueous injectable solution) does the source give for `CCN(CC)CCN1C(=O)c2c(c3c4cccc(Cl)c4n([C@@H]4O[C@H](CO)[C@@H](OC)[C@H](O)[C@H]4O)c3c3[nH]c4c(Cl)cccc4c23)C1=O` here?
A: not sufficiently soluble in water

Q: With `CO[C@@]12[C@H](COC(N)=O)C3=C(C(=O)C(C)=C(N)C3=O)N1C[C@@H]1N[C@@H]12` [Mitomycin C] as the molecule, how does the “% T/C (median survival time)” value ([2]; 1.6 mg/kg/inj) read?
A: 127%

Q: And the “MST (median survival time)” value ([2]; 1.6 mg/kg/inj)?
A: 9.5 days

Q: What about the “% T/C (median survival time)” value ([2]; 4.8 mg/kg/inj) of the same molecule?
A: 160%

Q: What about the “MST (median survival time)” value ([2]; 4.8 mg/kg/inj) of the same molecule?
A: 12.0 days

Q: What about the “AWC (average weight change at Day 5)” value ([2]; 1.6 mg/kg) of the same molecule?
A: 0.4 Grams

Q: And the “AWC (average weight change at Day 5)” value ([2]; 4.8 mg/kg)?
A: -0.1 Grams

Q: And the “% T/C (median survival time)” value [3, 5]?
A: 205%

Q: And the “MST (median survival time)” value [3, 5]?
A: 20.5 days

Q: And the “AWC (average weight change at Day 5)” value ([3]; mouse, in vivo, ip, 4.8 mg/kg)?
A: -0.6 Grams

Q: With `CCN(CC)CCN1C(=O)c2c(c3c4cccc(Cl)c4n([C@@H]4O[C@H](CO)[C@@H](OC)[C@H](O)[C@H]4O)c3c3[nH]c4c(Cl)cccc4c23)C1=O` [hydrochloride salt] as the molecule, how does the “physical instability / shelf stability of solutions of acid addition salts (in words)” value [4] read?
A: do not form aqueous solutions which are sufficiently shelf stable

Q: Which solubility ([1]; water, salt formed from free base and a molar equivalent of acid, room temperature, read-out: solubility of acid addition salt in water) does the source give for `CCN(CC)CCN1C(=O)c2c(c3c4cccc(Cl)c4n([C@@H]4O[C@H](CO)[C@@H](OC)[C@H](O)[C@H]4O)c3c3[nH]c4c(Cl)cccc4c23)C1=O` [succinic] here?
A: > 25 mg/mL
